From patent US6590093B1, “Orthoester protecting groups” (Dharmacon, Inc., priority 1998, dated 2003) come the findings set out here.

The conditions of series [1]: buffer, pH 2.
The nature of series [2]: acid lability (half life) of the 2′-orthoester protecting group on uridine. The conditions noted are these: pH 2, 25° C.; after ester hydrolysis of the ACE orthoester.

The compound `O=c1ccn(C2OC(CO)C(O)C2OC(OCCO)OCCO)c(=O)[nH]1` (centres unmarked) [2′-modified uridine] gave a half life in series [1] of under 45 s. Besides, the “times more labile (than 2′-ACE-uridine)” value in series [2] is 10 times.
